Experiment [1] deals with E3 ubiquitin-protein ligase UHRF1 (Homo sapiens, UniProt Q96T88). The experiment in a line: Counterscreen for inhibitors of 5-meCpG-binding domain protein 2 (MBD2): TRFRET-based biochemical high throughput dose response assay to identify inhibitors of binding of ubiquitin-like with PHD and ring finger domains 1 (UHRF1) to methylated oligonucleotide. For orientation: The purpose of a counterscreen is to sort out artefacts and off-target activity.

The target in experiment [2] is G-protein coupled receptor 183 (Homo sapiens, UniProt P32249). The experiment in a line: SAR confirmation of small molecule antagonists of the EBI2 receptor via a luminescent beta-arrestin assa. It counts as functional.
Chain of G-protein coupled receptor 183 (P32249 whole entry): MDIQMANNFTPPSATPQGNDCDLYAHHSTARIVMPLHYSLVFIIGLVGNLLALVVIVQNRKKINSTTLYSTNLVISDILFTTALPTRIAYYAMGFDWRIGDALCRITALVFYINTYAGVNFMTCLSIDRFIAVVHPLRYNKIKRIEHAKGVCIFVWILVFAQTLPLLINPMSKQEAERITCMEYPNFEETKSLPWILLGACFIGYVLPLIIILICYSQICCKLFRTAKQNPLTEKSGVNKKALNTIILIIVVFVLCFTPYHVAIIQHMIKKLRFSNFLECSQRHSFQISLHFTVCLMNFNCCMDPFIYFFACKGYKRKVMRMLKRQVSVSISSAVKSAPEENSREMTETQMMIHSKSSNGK
Experiment [3] in a line: OVCAR8 cell viability loss – plate reader, dry powder samples, PAX8 project, dose response (AID 743197). It is filed as functional, cell-based. The settings on record: OVCAR-8.
Experiment [4] is described as follows: general cell-killing toxicity readout – plate reader, dry powder samples, cytotoxicity control for PAX8 inhibitor project, dose response (AID 743021). It is filed as functional, cell-based.
Experiment [5] is described as follows: growth inhibition of yeast DHODH-expressing 3D7 parasites – SYBR Green, dry powder samples, dose response (AID 1159570).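 Note: parasite growth measured after 72 hours of compound exposure.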 It counts as functional, cell-based.
The nature of experiment [6]: Dd2 malaria parasite growth inhibition potency – SYBR Green, dry powder samples, dose response (AID 1159566).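 Note: potency for growth inhibition with lower SYBR green DNA signal.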 It counts as functional, cell-based.
Experiment [7] in a line: growth inhibition of PfATP4-mutant resistant parasites – NITD609-resistant line, SYBR Green, dry powder, dose response (AID 1159571).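 Note: parasites synchronized at ring stage by sorbitol before testing.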 It is filed as functional, cell-based.
Experiment [8] in a line: toxicity to human HepG2 hepatoma cells – cell-based, plate reader, dry powder samples, cytotoxicity control, dose response (AID 1159569).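 Note: inhibitor potency with signal falling toward the positive control level.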 It counts as functional.
The target of another experiment is Paired box protein Pax-8 (Homo sapiens, UniProt Q06710). The experiment in a line: PAX8 transcriptional activity inhibition in RMG-I – RMG-I cells, luciferase, cherry-pick, dose response (AID 687027).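 Note: luciferase reporter driven by Pax8 target thyroperoxidase promoter measured by SteadyGlo luminescence.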 It counts as functional, cell-based.
Chain of Paired box protein Pax-8 (Q06710 whole entry): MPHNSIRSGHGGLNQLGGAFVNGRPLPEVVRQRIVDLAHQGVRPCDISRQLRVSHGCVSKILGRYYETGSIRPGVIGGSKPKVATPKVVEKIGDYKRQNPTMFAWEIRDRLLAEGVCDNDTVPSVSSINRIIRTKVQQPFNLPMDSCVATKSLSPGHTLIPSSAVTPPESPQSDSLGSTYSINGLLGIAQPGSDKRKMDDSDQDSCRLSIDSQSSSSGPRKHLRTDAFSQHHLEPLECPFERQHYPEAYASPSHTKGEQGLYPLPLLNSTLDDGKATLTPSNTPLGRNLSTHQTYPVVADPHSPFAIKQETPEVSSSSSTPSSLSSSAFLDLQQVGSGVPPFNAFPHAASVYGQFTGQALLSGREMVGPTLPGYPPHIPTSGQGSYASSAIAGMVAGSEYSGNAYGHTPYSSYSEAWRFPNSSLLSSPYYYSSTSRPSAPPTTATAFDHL
A short description of experiment [9]: OVCAR-3 cell viability loss – plate reader, dry powder samples, PAX8 inhibitor project, dose response (AID 743044). It counts as functional, cell-based.
Experiment [10] can be described thus: A2780 cell killing – plate reader, dry powder samples, cytotoxicity control, dose response (AID 743046). It counts as functional, cell-based.
The nature of experiment [11]: P. falciparum Dd2 growth inhibitors, dose response, SYBR Green, cherry-picked samples (AID 1159567). It counts as functional, cell-based.
Experiment [12] is described as follows: toxicity toward immortalized ovarian surface epithelium – cell-based, plate reader, dry powder samples, cytotoxicity control for PAX8 inhibitor project, dose response (AID 743045). It is filed as functional.
A short description of experiment [13]: IGROV1 cell killing – plate reader, dry powder samples, PAX8 inhibitor project, dose response (AID 743043). Conditions: IGROV-1. It is filed as functional, cell-based.
The target in a further experiment is T1, Protein skinhead-1 (Caenorhabditis elegans, UniProt P34707).
T1 sequence (P34707 whole entry): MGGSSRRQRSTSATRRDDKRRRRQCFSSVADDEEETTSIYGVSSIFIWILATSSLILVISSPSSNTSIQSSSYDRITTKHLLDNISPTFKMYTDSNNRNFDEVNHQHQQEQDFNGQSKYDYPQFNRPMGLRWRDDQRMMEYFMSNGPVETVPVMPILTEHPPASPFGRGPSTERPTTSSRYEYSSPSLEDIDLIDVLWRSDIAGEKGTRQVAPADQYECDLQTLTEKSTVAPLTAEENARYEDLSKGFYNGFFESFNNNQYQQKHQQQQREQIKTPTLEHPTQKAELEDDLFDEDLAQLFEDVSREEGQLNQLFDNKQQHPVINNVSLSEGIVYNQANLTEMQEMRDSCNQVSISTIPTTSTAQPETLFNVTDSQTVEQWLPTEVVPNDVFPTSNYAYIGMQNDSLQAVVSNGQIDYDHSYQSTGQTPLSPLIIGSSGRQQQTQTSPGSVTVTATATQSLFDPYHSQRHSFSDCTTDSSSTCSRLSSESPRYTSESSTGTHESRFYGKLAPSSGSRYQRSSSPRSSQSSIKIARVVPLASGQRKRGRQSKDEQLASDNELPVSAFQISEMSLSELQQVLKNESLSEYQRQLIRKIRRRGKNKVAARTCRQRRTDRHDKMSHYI
It is filed as functional.

In experiment [14] the target is NAD-dependent protein deacylase sirtuin-5, mitochondrial (Homo sapiens, UniProt Q9NXA8). Description: sirtuin-5 deacylation blockers, concentration series – biochemical, fluorescence imaging, cherry-pick, set 5, dose response (AID 720591).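 Note: desuccinylation of succinyl peptide AMC substrate read as fluorescence after trypsin release; potency of inhibitors that lower fluorescence and may act on trypsin instead.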
Chain of NAD-dependent protein deacylase sirtuin-5, mitochondrial (Q9NXA8 whole entry): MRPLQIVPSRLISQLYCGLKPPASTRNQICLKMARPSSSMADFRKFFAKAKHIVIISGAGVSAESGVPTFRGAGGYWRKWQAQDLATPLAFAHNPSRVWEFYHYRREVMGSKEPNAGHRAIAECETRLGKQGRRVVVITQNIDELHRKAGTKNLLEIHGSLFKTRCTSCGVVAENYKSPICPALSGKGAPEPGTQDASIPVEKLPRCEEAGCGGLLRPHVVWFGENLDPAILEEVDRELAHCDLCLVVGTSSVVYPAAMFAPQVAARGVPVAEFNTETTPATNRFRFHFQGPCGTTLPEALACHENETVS
Experiment [15] is described as follows: reduced cellular PGC1a acetyl-lysine signal – cell-based, cherry-picked samples, dose response (AID 720514).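 Note: potency may reflect raised or lowered acetylation signal.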 It is filed as functional.
A further experiment deals with Prothrombin (Bos taurus, UniProt P00735). Description: thrombin protease inhibitors – biochemical, fluorescence polarization, uHTS hits, dose response (AID 602369). It is filed as functional. On the technique in general: Fluorescence polarisation rises when a labelled molecule tumbles more slowly, as on binding a larger partner.
In experiment [16] the target is 72 kDa type IV collagenase (Homo sapiens, UniProt P08253). The experiment in a line: Dose Response validation of uHTS RPN11 inhibitor hits using a MMP-2 Fluorescence assay. It is filed as functional.
Chain of 72 kDa type IV collagenase (P08253 whole entry): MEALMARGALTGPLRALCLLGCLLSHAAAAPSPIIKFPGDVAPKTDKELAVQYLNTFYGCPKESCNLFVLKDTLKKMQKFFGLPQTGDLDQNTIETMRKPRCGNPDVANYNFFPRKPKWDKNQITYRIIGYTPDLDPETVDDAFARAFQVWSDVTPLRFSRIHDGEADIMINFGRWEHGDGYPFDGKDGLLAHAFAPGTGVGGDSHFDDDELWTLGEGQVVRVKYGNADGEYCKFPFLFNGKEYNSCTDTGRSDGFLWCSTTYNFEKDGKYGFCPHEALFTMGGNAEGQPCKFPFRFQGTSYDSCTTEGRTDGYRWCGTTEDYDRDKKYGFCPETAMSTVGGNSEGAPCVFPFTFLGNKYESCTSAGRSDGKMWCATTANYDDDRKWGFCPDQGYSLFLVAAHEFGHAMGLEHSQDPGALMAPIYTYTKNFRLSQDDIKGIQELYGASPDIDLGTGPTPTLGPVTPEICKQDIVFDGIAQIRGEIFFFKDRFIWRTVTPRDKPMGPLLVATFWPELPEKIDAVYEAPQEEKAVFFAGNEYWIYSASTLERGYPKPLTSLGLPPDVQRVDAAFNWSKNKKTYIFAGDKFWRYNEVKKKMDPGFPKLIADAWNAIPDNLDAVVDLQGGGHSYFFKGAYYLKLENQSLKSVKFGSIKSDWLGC
In experiment [17] the target is 26S proteasome non-ATPase regulatory subunit 14 (Homo sapiens, UniProt O00487). The experiment in a line: inhibition of proteasome subunit RPN11 – biochemical, fluorescence polarization, uHTS hits, confirmation (AID 602368). It counts as functional.
Chain of 26S proteasome non-ATPase regulatory subunit 14 (O00487 whole entry): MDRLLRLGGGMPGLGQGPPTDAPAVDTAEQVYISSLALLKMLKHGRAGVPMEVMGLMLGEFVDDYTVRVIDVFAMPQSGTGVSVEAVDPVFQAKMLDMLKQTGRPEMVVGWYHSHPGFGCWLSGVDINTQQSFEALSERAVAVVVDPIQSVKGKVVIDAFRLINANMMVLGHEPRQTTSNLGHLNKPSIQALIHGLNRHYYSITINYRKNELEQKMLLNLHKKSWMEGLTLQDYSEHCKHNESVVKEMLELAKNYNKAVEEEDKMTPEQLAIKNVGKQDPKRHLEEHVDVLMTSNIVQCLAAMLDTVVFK
The next experiment concerns the target Caspase-6 (Homo sapiens, UniProt P55212). Description: inhibition of CASP6 peptide cleavage – biochemical, VEID-R110 fluorescence, cherry-pick, dose response (AID 720632).
A short description of another experiment: cells. Conditions: HEK293.
A further experiment concerns the target Phospholipase D2 (Homo sapiens, UniProt O14939). Description: PLD2 Cellular Concentration Response Study. It is filed as functional.
Another experiment has as its target T2, Phospholipase D1 (Homo sapiens, UniProt Q13393).
T2 sequence (Q13393 whole entry): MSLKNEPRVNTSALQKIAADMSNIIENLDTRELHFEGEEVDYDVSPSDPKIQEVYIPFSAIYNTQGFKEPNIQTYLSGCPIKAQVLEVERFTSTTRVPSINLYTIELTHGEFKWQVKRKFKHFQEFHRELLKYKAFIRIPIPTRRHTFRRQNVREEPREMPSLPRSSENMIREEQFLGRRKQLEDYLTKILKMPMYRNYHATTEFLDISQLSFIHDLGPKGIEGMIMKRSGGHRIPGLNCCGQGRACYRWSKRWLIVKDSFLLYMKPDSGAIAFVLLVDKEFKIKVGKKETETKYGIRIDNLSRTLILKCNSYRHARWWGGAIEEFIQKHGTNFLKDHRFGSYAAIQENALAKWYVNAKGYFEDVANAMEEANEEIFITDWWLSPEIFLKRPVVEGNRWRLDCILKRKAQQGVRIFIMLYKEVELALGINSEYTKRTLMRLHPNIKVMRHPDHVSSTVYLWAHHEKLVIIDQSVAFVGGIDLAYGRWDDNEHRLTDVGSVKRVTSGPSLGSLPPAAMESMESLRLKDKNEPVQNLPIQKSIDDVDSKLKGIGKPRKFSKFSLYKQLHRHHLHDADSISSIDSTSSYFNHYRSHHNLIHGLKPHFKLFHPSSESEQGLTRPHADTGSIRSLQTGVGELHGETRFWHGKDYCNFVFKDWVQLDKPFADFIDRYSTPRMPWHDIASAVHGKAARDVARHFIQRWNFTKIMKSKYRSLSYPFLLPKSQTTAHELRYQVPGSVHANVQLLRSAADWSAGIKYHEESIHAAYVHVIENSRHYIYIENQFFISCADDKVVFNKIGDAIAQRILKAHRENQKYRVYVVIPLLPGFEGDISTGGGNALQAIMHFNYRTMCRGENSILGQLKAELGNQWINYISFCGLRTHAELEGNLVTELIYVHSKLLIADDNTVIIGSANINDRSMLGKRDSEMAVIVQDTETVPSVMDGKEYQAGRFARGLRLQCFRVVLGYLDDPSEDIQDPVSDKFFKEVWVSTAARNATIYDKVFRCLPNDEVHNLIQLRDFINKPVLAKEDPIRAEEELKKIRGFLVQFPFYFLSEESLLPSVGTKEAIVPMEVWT
The experiment in a line: PLD1 Cellular Concentration Response Study. It is filed as functional.

Active and inactive are the calls of the source. Where only a bound is given, the exact number is not on record here.

Chain of Caspase-6 (P55212 24-179 limits assumed): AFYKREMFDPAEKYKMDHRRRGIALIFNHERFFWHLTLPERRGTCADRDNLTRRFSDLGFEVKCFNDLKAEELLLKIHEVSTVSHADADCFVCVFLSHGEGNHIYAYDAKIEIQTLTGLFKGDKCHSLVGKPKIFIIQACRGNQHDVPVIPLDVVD
Chain of Caspase-6 (P55212 194-293 limits assumed): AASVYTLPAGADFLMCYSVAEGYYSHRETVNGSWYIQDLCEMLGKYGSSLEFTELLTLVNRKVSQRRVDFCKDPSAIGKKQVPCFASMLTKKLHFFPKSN
Chain of Phospholipase D2 (O14939 whole entry): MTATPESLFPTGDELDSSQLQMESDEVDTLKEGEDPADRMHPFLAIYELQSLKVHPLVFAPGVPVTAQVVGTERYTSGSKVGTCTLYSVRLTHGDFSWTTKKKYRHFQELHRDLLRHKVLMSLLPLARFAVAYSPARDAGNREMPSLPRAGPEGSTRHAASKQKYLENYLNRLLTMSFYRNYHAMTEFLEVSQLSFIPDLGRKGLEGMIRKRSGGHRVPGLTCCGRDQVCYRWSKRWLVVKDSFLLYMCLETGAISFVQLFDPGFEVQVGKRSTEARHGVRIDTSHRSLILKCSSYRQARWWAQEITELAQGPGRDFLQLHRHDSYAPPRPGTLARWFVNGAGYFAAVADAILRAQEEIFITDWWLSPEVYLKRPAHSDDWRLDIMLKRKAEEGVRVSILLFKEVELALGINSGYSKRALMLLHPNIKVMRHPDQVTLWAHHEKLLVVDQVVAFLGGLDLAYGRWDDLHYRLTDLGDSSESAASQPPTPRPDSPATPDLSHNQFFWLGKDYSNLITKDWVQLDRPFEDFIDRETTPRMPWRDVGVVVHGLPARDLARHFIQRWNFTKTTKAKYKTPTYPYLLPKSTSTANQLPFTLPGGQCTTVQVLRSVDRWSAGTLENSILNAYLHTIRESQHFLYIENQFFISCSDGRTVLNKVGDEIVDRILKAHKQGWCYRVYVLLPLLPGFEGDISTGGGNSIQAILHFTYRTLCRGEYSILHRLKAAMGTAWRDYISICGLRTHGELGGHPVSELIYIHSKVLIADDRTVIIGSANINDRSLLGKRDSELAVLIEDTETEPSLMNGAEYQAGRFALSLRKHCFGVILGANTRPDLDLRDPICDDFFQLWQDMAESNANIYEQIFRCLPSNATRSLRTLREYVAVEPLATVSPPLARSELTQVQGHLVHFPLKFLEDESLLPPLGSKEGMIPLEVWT
Chain of E3 ubiquitin-protein ligase UHRF1 (Q96T88 whole entry, the tested form may be a part): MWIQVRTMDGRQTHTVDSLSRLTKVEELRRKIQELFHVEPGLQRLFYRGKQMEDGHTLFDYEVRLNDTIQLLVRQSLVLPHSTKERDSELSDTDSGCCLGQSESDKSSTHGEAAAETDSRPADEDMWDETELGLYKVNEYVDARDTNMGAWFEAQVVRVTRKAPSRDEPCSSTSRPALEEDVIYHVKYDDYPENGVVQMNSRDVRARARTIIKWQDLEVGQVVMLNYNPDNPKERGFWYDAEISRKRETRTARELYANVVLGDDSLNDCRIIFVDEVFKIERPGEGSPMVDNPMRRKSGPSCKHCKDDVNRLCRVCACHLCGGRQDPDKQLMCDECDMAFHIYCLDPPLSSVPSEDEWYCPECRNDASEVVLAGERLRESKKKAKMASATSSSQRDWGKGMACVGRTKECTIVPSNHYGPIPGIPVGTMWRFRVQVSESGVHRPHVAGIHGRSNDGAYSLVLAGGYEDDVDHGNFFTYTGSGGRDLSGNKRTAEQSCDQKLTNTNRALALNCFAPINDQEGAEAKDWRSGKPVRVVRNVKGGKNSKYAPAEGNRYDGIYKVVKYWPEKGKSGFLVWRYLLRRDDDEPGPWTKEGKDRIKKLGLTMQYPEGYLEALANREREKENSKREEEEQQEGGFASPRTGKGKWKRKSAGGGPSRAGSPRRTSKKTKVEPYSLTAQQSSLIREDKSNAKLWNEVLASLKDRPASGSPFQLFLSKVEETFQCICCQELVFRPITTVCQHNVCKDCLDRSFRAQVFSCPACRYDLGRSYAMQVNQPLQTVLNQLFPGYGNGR

As a reminder, the IC50 is the concentration that gives 50% inhibition. As to `CC(=O)Nc1sc2c(c1-c1nc3ccccc3s1)CCCNC2`, the IC50 in [1] is 15.3 µM (inactive).

With `O=C(/C=C/c1ccc(F)cc1)N1CCN(S(=O)(=O)c2ccc(F)cc2)CC1`, the concentration for half-maximal inhibition (IC50) in experiment [2] was 0.0185 µM (active).

A word on the AC50: it is the concentration at which the activity in the assay is half-maximal. Consider `C[C@H]1CN([C@@H](C)CO)C(=O)c2c(c3ccccc3n2C)-c2ccccc2CO[C@H]1CN(C)S(=O)(=O)c1ccc([N+](=O)[O-])cc1`, for which the AC50 in experiment [3] was 10.2 µM (active); in experiment [4], 48.5 µM (active); in [5] it was 0.298 µM (active); in [6] it was 0.234 µM (active); in experiment [7], 0.237 µM (active); in [8] it was 66.4 µM (active). Also, the AC50 on Paired box protein Pax-8 is 2.72 µM (active); in experiment [9], 10.1 µM (active); in experiment [10], 12.7 µM (active); in experiment [11] it was 0.629 µM (active); in experiment [12], 22.3 µM (active); in experiment [13], 12.2 µM (active).

On to `Fc1ccc(-c2nc3ccc(Cl)cn3c2Cc2ccsc2)cc1`, for which the IC50 on Protein skinhead-1 is 70.3 µM (inactive). Also, in [14], the AC50 was 25.8 µM (active).

Regarding `CC(C)CC#Cc1ccc2c(c1)O[C@@H](CN(C)Cc1ccc3c(c1)OCO3)[C@H](C)CN([C@H](C)CO)S2(=O)=O`, the AC50 in experiment [15] was 12.6 µM (active).

Take `CN(CC(=O)Nc1ccc(F)c(F)c1F)C(=O)CCc1nc(O)c2c3c(sc2n1)CCCC3`: the IC50 on Prothrombin is 61.3 µM (active); in experiment [16], > 100 µM (inactive); in experiment [17] it was 46.5 µM (active). Moreover, at Caspase-6, the concentration at half-maximal activity (AC50) was 18.6 µM (active).

For `COc1ccccc1OCCn1c(SC)nc2ccccc21`, the half-maximal activity concentration (AC50) in the experiment “cells” was 29.1 µM (active).

`O=C(NCCN1CCC2(CC1)C(=O)NCN2C(=O)C1CC1)c1ccc2ccccc2c1`: the IC50 at Phospholipase D2 is 0.44 µM (active); on Phospholipase D1, 3.1 µM (active).
